Measured values: patent US20260256751A1, “COMBINATION OF BETA-2-ADRENERGIC RECEPTOR AGONISTS AND GLP-1 RECEPTOR AGONISTS FOR USE IN TREATING HYPERGLYCAEMIA” (ATROGI AB, priority 2023, published 2026)

How the values were obtained:
[1] = test system: differentiated L6-myotubes; test: Glucose uptake screen (Biological example 1 of WO 2019/053427); assay type: cell-based; settings: compound at 10 μM, activity relative to isoproterenol at 10 μM, read-out: Biological example 1 of WO 2019/053427 (GU)
Method in brief: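 Uptake was read out as ^3H-2-deoxyglucose (50 nM, 10 min) radioactivity in NaOH lysates. Beforehand, overnight-starved, differentiated L6 myotubes received compound at 1×10^−5 M with ICI-118551 present for 1 h 40 min, followed by fresh agonist for a further 20 min in glucose-free medium.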

[2] = test system: differentiated L6-myotubes; test: cAMP production relative to isoprenaline (Biological example 2 of WO 2019/053427); assay type: cell-based; settings: 0.25 h, compound at 10 μM, activity relative to isoproterenol at 10 μM
Method in brief: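 Values are cAMP levels relative to isoprenaline at equal concentration (final 1×10^−5 M for both). Stimulation lasted 15 min in differentiated L6 myotubes, using HBSS buffer (pH 7.4) containing 1 mM IBMX, 5 mM HEPES and 1% BSA.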

In the case of `CC12CC(C1)[C@H]([C@H](O)c1cccc(N)c1F)N2` [Compound 241, (R)-{(R)-1-methyl-2-azabicyclo[2.1.1]hex-3-yl}(3-amino-2-fluorophenyl)methanol], the Emax at 10 µM [1] is reported as over 75% and the Emax at 10 µM [2] is reported as under 25%.
`CCCCCCCCNCC(O)c1ccc(O)cc1` (stereo not shown) [Compound 18, 1-(p-hydroxyphenyl)-2-(octylamino)-1-ethanol] gave an Emax at 10 µM [1] of 25 to 50% and an Emax at 10 µM [2] of under 25%.
Molecule `CS(=O)(=O)Nc1ccc(CC23CCC([C@@H](O)c4cccc(F)c4)(CC2)N3)cc1` [Compound 474, (S)-(m-fluorophenyl)(4-{[p-(mesylamino)phenyl]methyl}-7-azabicyclo[2.2.1]hept-1-yl)methanol] has an Emax at 10 µM [1] of 50 to 75% and an Emax at 10 µM [2] of under 25%.
Molecule `CC12CCC([C@H](O)c3ccccc3F)(CC1)N2` [Compound 181, (R)-(o-fluorophenyl)(4-methyl-7-azabicyclo[2.2.1]hept-1-yl)methanol] has an Emax at 10 µM [1] of over 75% and an Emax at 10 µM [2] of under 25%.
Work on `CC12CCC([C@@H](O)c3cncc(F)c3)(CC1)N2` [Compound 184, (S)-(5-fluoro-3-pyridyl)(4-methyl-7-azabicyclo[2.2.1]hept-1-yl)methanol] yielded an Emax at 10 µM [1] of 50 to 75% and an Emax at 10 µM [2] of under 25%.
Molecule `CC(C)(C[C@H]1CC[C@@H](NS(C)(=O)=O)CC1)NC[C@H](O)c1cccc(F)c1` [Compound 453, (R)-2-{1,1-dimethyl-2-[(1s,4S)-4-(mesylamino)cyclohexyl]ethylamino}-1-(m-fluorophenyl)-1-ethanol] has an Emax at 10 µM [1] of over 75% and an Emax at 10 µM [2] of under 25%.
`O[C@H](c1cccc(F)c1)[C@H]1CCC2(CCCC2)N1` [Compound 168] gave an Emax at 10 µM [1] of 50 to 75% and an Emax at 10 µM [2] of 25 to 50%.
With `CC(C)(C[C@H]1CC[C@H](N)CC1)NC[C@@H](O)c1cccc(C#N)n1` [Compound 415, 6-[(R)-2-{1,1-dimethyl-2-[(1r,4R)-4-aminocyclohexyl]ethylamino}-1-hydroxyethyl]-2-pyridinecarbonitrile] the Emax at 10 µM [1] was 50 to 75% and the Emax at 10 µM [2] was under 25%.
Work on `CNS(=O)(=O)[C@H]1CC[C@@H](CC(C)(C)NC[C@H](O)c2cccc(F)c2)CC1` [Compound 477, (R)-2-{1,1-dimethyl-2-[(1s,4S)-4-(methylaminosulfonyl)cyclohexyl]ethylamino}-1-(m-fluorophenyl)-1-ethanol] yielded an Emax at 10 µM [1] of 50 to 75% and an Emax at 10 µM [2] of under 25%.
In the case of `CC1(C)CC[C@H]([C@H](O)c2cccc(N)c2F)N1` [Compound 227, (R)-[(R)-5,5-dimethyl-2-pyrrolidinyl](3-amino-2-fluorophenyl)methanol], the Emax at 10 µM [1] is reported as over 75% and the Emax at 10 µM [2] is reported as under 25%.
With `CCC[C@H](C)NC[C@H](O)c1ccc(F)cc1` [Compound 53, (R)-2-[(S)-1-methylbutylamino]-1-(p-fluorophenyl)-1-ethanol] the Emax at 10 µM [1] was 50 to 75% and the Emax at 10 µM [2] was under 25%.
Molecule `CCCCNC[C@H](O)c1ccccc1F` [Compound 79, (R)-2-(butylamino)-1-(o-fluorophenyl)-1-ethanol] has an Emax at 10 µM [1] of over 75% and an Emax at 10 µM [2] of under 25%.
Molecule `CC12CC(C1)[C@@H]([C@@H](O)c1ccccc1F)N2` [Compound 211, (S)-{(S)-1-methyl-2-azabicyclo[2.1.1]hex-3-yl}(o-fluorophenyl)methanol] has an Emax at 10 µM [1] of over 75% and an Emax at 10 µM [2] of under 25%.
Work on `O[C@H](c1cncc(F)c1)[C@H]1CC[C@H](Cc2ccc(Cl)cc2)N1` [Compound 406, (R)-{(2R,5R)-5-[(p-chlorophenyl)methyl]-2-pyrrolidinyl}(5-fluoro-3-pyridyl)methanol] yielded an Emax at 10 µM [1] of over 75% and an Emax at 10 µM [2] of under 25%.
For `COc1ccc(C[C@@H]2CC[C@H]([C@H](O)c3cncc(F)c3)N2)cc1` [Compound 378, (R)-{(2R,5S)-5-[(p-methoxyphenyl)methyl]-2-pyrrolidinyl}(5-fluoro-3-pyridyl)methanol], the Emax at 10 µM [1] was over 75% and the Emax at 10 µM [2] was under 25%.
With `CS(=O)(=O)Nc1cccc(CC23CCC([C@H](O)c4cccc(F)c4)(CC2)N3)c1` [Compound 515, (R)-(m-fluorophenyl)(4-{[m-(mesylamino)phenyl]methyl}-7-azabicyclo[2.2.1]hept-1-yl)methanol] the Emax at 10 µM [1] was 50 to 75% and the Emax at 10 µM [2] was 25 to 50%.
With `CCC[C@@H]1CCC[C@H]([C@H](O)c2cccc(O)c2)N1` [Compound 45, (R)-[(2R,6R)-6-propyl-2-piperidyl](m-hydroxyphenyl)methanol] the Emax at 10 µM [1] was over 75% and the Emax at 10 µM [2] was under 25%.
`CC(C)(C)NC[C@H](O)c1ccc(F)c(O)c1` [Compound 84, (R)-2-(tert-butylamino)-1-(4-fluoro-3-hydroxyphenyl)-1-ethanol] gave an Emax at 10 µM [1] of over 75% and an Emax at 10 µM [2] of 50 to 75%.
With `CC(C)(C[C@H]1CC[C@H](NS(=O)(=O)C2CC2)CC1)NC[C@H](O)c1cccc(F)c1` [Compound 496, (R)-2-{1,1-dimethyl-2-[(1r,4R)-4-(cyclopropylsulfonylamino)cyclohexyl]ethylamino}-1-(m-fluorophenyl)-1-ethanol] the Emax at 10 µM [1] was 50 to 75% and the Emax at 10 µM [2] was under 25%.
Work on `CC12CCC([C@@H](O)c3cccc(F)c3)(CC1)N2` [Compound 178, (S)-(m-fluorophenyl)(4-methyl-7-azabicyclo[2.2.1]hept-1-yl)methanol] yielded an Emax at 10 µM [1] of 25 to 50% and an Emax at 10 µM [2] of under 25%.
For `CC(=O)N(Cc1ccccc1)[C@H]1CC[C@@H](C[C@@H]2CC[C@H]([C@H](O)c3cccc(F)c3)N2)CC1` [Compound 479, N-[(1R,4s)-4-({(2S,5R)-5-[(S)-(m-fluorophenyl)hydroxymethyl]-2-pyrrolidinyl}methyl)cyclohexyl]-N-benzylacetamide], the Emax at 10 µM [1] was under 25% and the Emax at 10 µM [2] was under 25%.
Molecule `CC(C)CS(=O)(=O)N[C@H]1CC[C@H](CC(C)(C)NC[C@H](O)c2cncc(F)c2)CC1` [Compound 526, (R)-2-{1,1-dimethyl-2-[(1r,4R)-4-(isobutylsulfonylamino)cyclohexyl]ethylamino}-1-(5-fluoro-3-pyridyl)-1-ethanol] has an Emax at 10 µM [1] of 50 to 75% and an Emax at 10 µM [2] of under 25%.
Work on `CCCCNCC(O)c1cc(Cl)c(O)c(Cl)c1` (stereo not shown) [Compound 23, 2-(butylamino)-1-(3,5-dichloro-4-hydroxyphenyl)-1-ethanol] yielded an Emax at 10 µM [1] of under 25% and an Emax at 10 µM [2] of under 25%.
`CCCCNCC(O)c1ccc(F)c(N)c1F` (stereo not shown) [Compound 43, 1-(3-amino-2,4-difluorophenyl)-2-(butylamino)-1-ethanol] showed an Emax at 10 µM [1] of over 75% and an Emax at 10 µM [2] of under 25%.
For `CC12CCC([C@H](O)c3ccncc3F)(CC1)N2` [Compound 254, (R)-(3-fluoro-4-pyridyl)(4-methyl-7-azabicyclo[2.2.1]hept-1-yl)methanol], the Emax at 10 µM [1] was under 25% and the Emax at 10 µM [2] was under 25%.
For `O[C@H](c1cccc(F)c1)C12CCC(Cc3ccc(OC(F)(F)F)cc3)(CC1)N2` [Compound 501, (R)-(m-fluorophenyl){4-[(p-trifluoromethoxyphenyl)methyl]-7-azabicyclo[2.2.1]hept-1-yl}methanol], the Emax at 10 µM [1] was under 25% and the Emax at 10 µM [2] was under 25%.
Molecule `COc1ccc(C[C@H]2CC[C@H]([C@@H](O)c3cncc(F)c3)N2)cc1` [Compound 380, (S)-{(2R,5R)-5-[(p-methoxyphenyl)methyl]-2-pyrrolidinyl}(5-fluoro-3-pyridyl)methanol] has an Emax at 10 µM [1] of over 75% and an Emax at 10 µM [2] of under 25%.
Work on `Oc1ccc(C(O)CNCCC2CC2)cc1` (stereo not shown) [Compound 24, p-[2-(2-cyclopropylethylamino)-1-hydroxyethyl]phenol] yielded an Emax at 10 µM [1] of 50 to 75% and an Emax at 10 µM [2] of under 25%.
`COc1ccc(CCC23CCC([C@H](O)c4cccc(F)c4)(CC2)N3)cc1` [Compound 540, (R)-(m-fluorophenyl){4-[2-(p-methoxyphenyl)ethyl]-7-azabicyclo[2.2.1]hept-1-yl}methanol] was tested, and the Emax at 10 µM [1] was 50 to 75% and the Emax at 10 µM [2] was 25 to 50%.
In the case of `CN([C@H]1CC[C@@H](CC(C)(C)NC[C@H](O)c2cncc(F)c2)CC1)S(C)(=O)=O` [Compound 520, (R)-2-{1,1-dimethyl-2-[(1s,4S)-4-(N-mesyl-N-methylamino)cyclohexyl]ethylamino}-1-(5-fluoro-3-pyridyl)-1-ethanol], the Emax at 10 µM [1] is reported as 50 to 75% and the Emax at 10 µM [2] is reported as under 25%.
In the case of `O=C(N[C@H]1CC[C@@H](CNC[C@H](O)c2cncc(F)c2)CC1)c1ccccc1` [Compound 318, N-[(1S,4s)-4-{[(R)-2-(5-fluoro-3-pyridyl)-2-hydroxyethylamino]methyl}cyclohexyl]benzamide], the Emax at 10 µM [1] is reported as 50 to 75% and the Emax at 10 µM [2] is reported as under 25%.
For `CC1(C)C[C@H]([C@@H](O)c2cncc(F)c2)N1` [Compound 217, (S)-[(R)-4,4-dimethyl-2-azetidinyl](5-fluoro-3-pyridyl)methano], the Emax at 10 µM [1] was 25 to 50% and the Emax at 10 µM [2] was under 25%.
Work on `C[C@H]1CC[C@@H]([C@H](O)c2ccccc2)N1` (racemic) [Compound 38, Racemic mixture of (R)-[(2S,5S)-5-methyl-2-pyrrolidinyl]phenylmeth-anol and (S)-[(2R,5R)-5-methyl-2-pyrrolidinyl]phenylmeth-anol] yielded an Emax at 10 µM [1] of 25 to 50% and an Emax at 10 µM [2] of under 25%.
Work on `CO[C@H]1CC[C@H](C[C@H]2CC[C@H]([C@@H](O)c3cccc(F)c3)N2)CC1` [Compound 334, (S)-[(2R,5R)-5-{[(1r,4R)-4-methoxycyclohexyl]methyl}-2-pyrrolidinyl](m-fluorophenyl)methanol] yielded an Emax at 10 µM [1] of 25 to 50% and an Emax at 10 µM [2] of under 25%.
Work on `CC1(C)C[C@@H]([C@H](O)c2cccc(F)c2)N1` [Compound 200, (R)-[(S)-4,4-dimethyl-2-azetidinyl](m-fluorophenyl)methanol] yielded an Emax at 10 µM [1] of under 25% and an Emax at 10 µM [2] of under 25%.
